Experimental findings from patent publication US12679836B2, “4H-pyrrolo[3,2-c]pyridin-4-one compounds” (Bayer Aktiengesellschaft, priority 2019, dated 2026) are described below.

Like-named read-outs stand apart in the source and are kept apart here.

Assay [1] concerns the target T1, EGFR with insertion of SVD between D770 and N771 (EGFR ins SVD) (Homo sapiens, UniProt P00533, DUP768-770).
T1 construct: made in house; host or cells: Sf9 insect cells (baculovirus)
In words: Exon20-Mutant-EGFR(D770_N771insSVD) kinase assay (TR-FRET). The assay is classed as biochemical. As to conditions: 2 mM ATP, several values per example where printed. In general terms: TR-FRET usually uses a lanthanide donor and a delayed reading to cut background.

The target in assay [2] is T2, Bub1 (Homo sapiens, UniProt O43683).
T2 construct: catalytic domain of human Bub1 (amino acids 704-1085); His6 (N); made in house; host or cells: Hi5 insect cells
In words: Bub1 TR-FRET high ATP kinase assay. The assay is classed as biochemical. As to conditions: 2 mM ATP. In short, it runs like this:
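Recombinant His6-tagged human Bub1 catalytic domain (aa 704-1085), from Hi5 insect cells, phosphorylating a biotinylated peptide substrate at high ATP concentration. TR-FRET read-out.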

In assay [3] the target is Ba/F3-EGFR-insSVD cells (Homo sapiens, UniProt P00533, DUP768-770, cells depend on it). In words: Ba/F3 cell survival assay (Cell Titer-Glo), EGFR-insSVD. The assay is classed as cell-based. To be noted: without IL-3, with 10 ng/mL EGF, 48 h; read-out: BA/F3 (insSVD) IC50. The method, boiled down: (§1)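 Ba/F3 cells stably expressing WT EGFR or EGFR-insSVD from retroviral transduction were grown without IL-3 on 10 ng/mL EGF. Cells were plated at 4000 cells/well, treated with compound for 48 h at 37° C, and viability was read by CellTiter-Glo luminescence.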
On the technique in general: Cellular ATP, detected with luciferase, serves as a proxy for viable cell number.

The target in assay [4] is Ba/F3-EGFR-WT cells (Homo sapiens, UniProt P00533). In words: Ba/F3 cell survival assay (Cell Titer-Glo), WT EGFR. The assay is classed as cell-based. To be noted: without IL-3, with 10 ng/mL EGF, 48 h; read-out: BA/F3 (wild type) IC50. The method, boiled down: as §1
Setting [5] is: Bub1 high ATP (2 mM) IC50 [mol/l].
The mark [6] stands for this setting: read-out: Bub1 high ATP (2 mM) IC50 [mol/l].

Ba/F3-EGFR-insSVD cells, sequence (P00533 with tags, fused parts or gaps DUP768-770): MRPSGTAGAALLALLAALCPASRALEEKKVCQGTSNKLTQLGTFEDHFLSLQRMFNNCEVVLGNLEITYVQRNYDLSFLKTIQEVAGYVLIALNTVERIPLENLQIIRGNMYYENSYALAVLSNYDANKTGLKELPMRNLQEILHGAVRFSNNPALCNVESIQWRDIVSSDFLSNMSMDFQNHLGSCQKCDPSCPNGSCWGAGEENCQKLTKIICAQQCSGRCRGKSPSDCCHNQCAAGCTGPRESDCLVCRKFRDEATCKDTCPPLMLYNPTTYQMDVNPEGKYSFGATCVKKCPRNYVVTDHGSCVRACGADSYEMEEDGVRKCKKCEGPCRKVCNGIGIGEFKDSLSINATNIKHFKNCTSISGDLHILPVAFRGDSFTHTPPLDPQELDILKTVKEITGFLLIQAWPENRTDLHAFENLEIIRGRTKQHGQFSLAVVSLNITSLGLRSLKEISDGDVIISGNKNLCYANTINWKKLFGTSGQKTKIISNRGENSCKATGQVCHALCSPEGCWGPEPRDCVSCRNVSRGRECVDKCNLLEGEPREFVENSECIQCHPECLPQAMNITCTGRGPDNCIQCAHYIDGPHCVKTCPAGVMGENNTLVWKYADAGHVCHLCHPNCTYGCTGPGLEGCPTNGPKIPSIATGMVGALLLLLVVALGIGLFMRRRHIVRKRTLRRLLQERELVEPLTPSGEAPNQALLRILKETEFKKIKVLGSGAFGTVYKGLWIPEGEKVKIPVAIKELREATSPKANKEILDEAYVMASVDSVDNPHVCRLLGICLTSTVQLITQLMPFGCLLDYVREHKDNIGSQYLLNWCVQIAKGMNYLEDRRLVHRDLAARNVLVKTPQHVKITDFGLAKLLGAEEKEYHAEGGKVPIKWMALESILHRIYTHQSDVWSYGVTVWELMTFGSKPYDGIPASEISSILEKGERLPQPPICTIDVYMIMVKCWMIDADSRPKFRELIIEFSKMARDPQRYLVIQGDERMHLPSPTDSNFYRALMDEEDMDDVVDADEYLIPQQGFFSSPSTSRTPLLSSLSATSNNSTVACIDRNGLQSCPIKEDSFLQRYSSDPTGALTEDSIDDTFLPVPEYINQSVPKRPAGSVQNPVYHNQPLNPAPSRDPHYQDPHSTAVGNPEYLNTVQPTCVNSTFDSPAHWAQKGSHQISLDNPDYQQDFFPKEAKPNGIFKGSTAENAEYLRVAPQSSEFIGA
Ba/F3-EGFR-WT cells, sequence (P00533 whole entry, change not shown): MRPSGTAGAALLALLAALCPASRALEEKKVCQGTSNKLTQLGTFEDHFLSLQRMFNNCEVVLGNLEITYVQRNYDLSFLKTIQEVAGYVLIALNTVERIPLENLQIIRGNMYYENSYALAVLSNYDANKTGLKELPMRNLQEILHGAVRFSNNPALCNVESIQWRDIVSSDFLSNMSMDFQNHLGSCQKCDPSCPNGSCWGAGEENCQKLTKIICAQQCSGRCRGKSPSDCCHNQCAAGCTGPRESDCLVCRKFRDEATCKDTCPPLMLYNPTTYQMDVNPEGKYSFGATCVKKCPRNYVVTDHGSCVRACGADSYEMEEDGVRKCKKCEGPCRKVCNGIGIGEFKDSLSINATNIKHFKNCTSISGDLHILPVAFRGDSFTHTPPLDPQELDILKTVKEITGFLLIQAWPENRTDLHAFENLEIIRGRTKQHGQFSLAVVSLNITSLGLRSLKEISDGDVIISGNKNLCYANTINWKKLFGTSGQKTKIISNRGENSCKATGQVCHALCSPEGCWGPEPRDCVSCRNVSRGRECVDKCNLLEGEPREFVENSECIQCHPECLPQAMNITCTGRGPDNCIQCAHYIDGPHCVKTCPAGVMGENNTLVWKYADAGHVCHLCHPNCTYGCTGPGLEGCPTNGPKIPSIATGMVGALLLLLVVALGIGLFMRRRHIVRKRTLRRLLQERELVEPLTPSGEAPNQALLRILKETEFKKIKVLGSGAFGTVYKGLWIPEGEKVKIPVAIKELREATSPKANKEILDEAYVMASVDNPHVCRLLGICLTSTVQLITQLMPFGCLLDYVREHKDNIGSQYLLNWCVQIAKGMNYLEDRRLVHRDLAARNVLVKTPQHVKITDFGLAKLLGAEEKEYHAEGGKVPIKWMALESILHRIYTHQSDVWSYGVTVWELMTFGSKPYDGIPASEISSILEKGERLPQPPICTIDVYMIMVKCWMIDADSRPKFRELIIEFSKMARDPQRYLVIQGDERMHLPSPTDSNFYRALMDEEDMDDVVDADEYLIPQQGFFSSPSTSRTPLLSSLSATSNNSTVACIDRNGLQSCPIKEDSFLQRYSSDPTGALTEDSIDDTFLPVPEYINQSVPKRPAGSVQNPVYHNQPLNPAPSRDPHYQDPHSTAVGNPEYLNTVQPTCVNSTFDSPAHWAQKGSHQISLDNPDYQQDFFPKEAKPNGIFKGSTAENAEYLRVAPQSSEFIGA
T1 sequence (P00533 with tags, fused parts or gaps DUP768-770): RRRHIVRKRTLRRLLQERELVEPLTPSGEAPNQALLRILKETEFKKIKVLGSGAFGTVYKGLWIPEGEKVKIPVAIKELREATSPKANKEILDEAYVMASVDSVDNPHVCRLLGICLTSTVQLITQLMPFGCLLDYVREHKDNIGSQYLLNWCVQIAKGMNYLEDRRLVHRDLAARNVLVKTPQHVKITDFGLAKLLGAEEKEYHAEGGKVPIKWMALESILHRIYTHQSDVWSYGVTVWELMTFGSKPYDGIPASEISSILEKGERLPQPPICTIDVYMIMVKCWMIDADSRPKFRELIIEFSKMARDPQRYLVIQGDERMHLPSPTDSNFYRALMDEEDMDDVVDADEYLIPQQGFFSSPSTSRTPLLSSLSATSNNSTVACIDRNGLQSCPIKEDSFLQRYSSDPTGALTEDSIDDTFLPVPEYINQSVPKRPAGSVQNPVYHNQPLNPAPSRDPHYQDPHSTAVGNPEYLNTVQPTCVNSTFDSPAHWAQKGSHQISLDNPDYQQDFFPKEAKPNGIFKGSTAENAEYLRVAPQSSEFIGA
T2 sequence (O43683 704-1085): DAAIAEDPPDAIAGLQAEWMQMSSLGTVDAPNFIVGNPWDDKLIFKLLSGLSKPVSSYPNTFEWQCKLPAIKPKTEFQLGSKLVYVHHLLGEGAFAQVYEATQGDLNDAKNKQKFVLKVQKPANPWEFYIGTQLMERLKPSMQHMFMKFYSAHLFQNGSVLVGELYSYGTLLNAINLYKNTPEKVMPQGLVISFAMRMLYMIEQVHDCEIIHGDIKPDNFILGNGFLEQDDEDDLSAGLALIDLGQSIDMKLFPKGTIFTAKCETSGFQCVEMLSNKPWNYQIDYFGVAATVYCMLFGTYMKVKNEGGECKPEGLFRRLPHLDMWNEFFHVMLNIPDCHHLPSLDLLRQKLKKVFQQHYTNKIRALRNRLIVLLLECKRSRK

Consider `Cc1c(F)cccc1Nc1c(-c2ccncc2OCC2COC(C)(C)CO2)[nH]c2c1C(=O)NCC2` (single isomer, unassigned) [Example 39, 2-[3-[(5,5-dimethyl-1,4-dioxan-2-yl)methoxy]-4-pyridyl]-3-(3-fluoro-2-methyl-anilino)-1,5,6,7-tetrahydropyrrolo[3,2-c]pyridin-4-one], for which the “mutEGFR (D770_N771insSVD) kinase assay IC50” value (from here on “mutEGFR”) in assay [1] worked out at 0.304 nM. The IC50 in assay [2] (setting [5]) is above 20000 nM. Also, the GI50 was determined as 44 nM in assay [3] and 630 nM in assay [4].

With `COc1c(F)cccc1Nc1c(-c2ccncc2OCC2COC(C)(C)CO2)[nH]c2c1C(=O)NCC2` (single isomer, unassigned) [Example 34, 2-(3-{[5,5-dimethyl-1,4-dioxan-2-yl]methoxy}pyridin-4-yl)-3-(3-fluoro-2-methoxyanilino)-1,5,6,7-tetrahydro-4H-pyrrolo[3,2-c]pyridin-4-one], the “mutEGFR” value in assay [1] was 0.193 nM. For the same compound, the IC50 in assay [2] (setting [6]) is above 20000 nM. The GI50 in assay [3] stood at 12 nM; in assay [4] it was 204 nM.

Consider `COc1c(F)cccc1Nc1c(-c2ccncc2OC[C@@H]2CN(CC(F)(F)F)CCO2)[nH]c2c1C(=O)NCC2` [Example 23, 3-(3-fluoro-2-methoxyanilino)-2-(3-{[(2S)-4-(2,2,2-trifluoroethyl)morpholin-2-yl]methoxy}pyridin-4-yl)-1,5,6,7-tetrahydro-4H-pyrrolo[3,2-c]pyridin-4-one], for which, in assay [1], the “mutEGFR” value stood at 0.169 nM. In assay [2] (setting [5]), this compound came in with an IC50 above 20000 nM. In addition, the GI50 in assay [3] was 71 nM; in assay [4] it was 648 nM.

`O=C1NCCc2[nH]c(-c3ccncc3OCC3COCCO3)c(Nc3cccc(F)c3CC(F)F)c21` (stereo not drawn) [Example 40, 3-[2-(2,2-difluoroethyl)-3-fluoro-anilino]-2-[3-(1,4-dioxan-2-ylmethoxy)-4-pyridyl]-1,5,6,7-tetrahydropyrrolo[3,2-c]pyridin-4-one]: the “mutEGFR” value in assay [1] was found to be 0.115 nM. In assay [2] (setting [5]), this compound showed an IC50 of 8620 nM. Also, the GI50 was found to be 119 nM in assay [3] and 867 nM in assay [4].

Take `COc1c(Cl)cccc1Nc1c(-c2ccncc2OC(C)C2CN(C)CCO2)[nH]c2c1C(=O)NCC2` (single isomer, unassigned) [Example 73, 3-(3-chloro-2-methoxyanilino)-2-[3-({1-[4-methylmorpholin-2-yl]ethyl}oxy)pyridin-4-yl]-1,5,6,7-tetrahydro-4H-pyrrolo[3,2-c]pyridin-4-one]: the “mutEGFR” value in assay [1] worked out at 1.12 nM. Besides, the IC50 in assay [2] (setting [6]) was above 20000 nM. The figures for the GI50 in assay [3] and in assay [4] were 78 nM and 1280 nM, respectively.

For `Cc1c(Cl)cccc1Nc1c(-c2ccncc2OC[C@H]2COCCN2C)[nH]c2c1C(=O)NCC2` [Example 43, 3-(3-chloro-2-methylanilino)-2-(3-{[(3R)-4-methylmorpholin-3-yl]methoxy}pyridin-4-yl)-1,5,6,7-tetrahydro-4H-pyrrolo[3,2-c]pyridin-4-one], in assay [1], the “mutEGFR” value worked out at 0.225 nM. Further, in assay [2] (setting [5]), the IC50 amounted to 2410 nM. For the same compound, the GI50 was found to be 60.5 nM in assay [3] and 1250 nM in assay [4].

Turning to `Cc1c(F)cccc1Nc1c(-c2ccncc2OCC2CN(C)CCO2)[nH]c2c1C(=O)NCC2` (single isomer, unassigned) [Example 63, 3-(3-fluoro-2-methylanilino)-2-(3-{[4-methylmorpholin-2-yl]methoxy}pyridin-4-yl)-1,5,6,7-tetrahydro-4H-pyrrolo[3,2-c]pyridin-4-one], the “mutEGFR” value in assay [1] stood at 0.265 nM. This compound also returned an IC50 in assay [2] (setting [5]) above 20000 nM. Moreover, the GI50 in assay [3] worked out at 147 nM; in assay [4], 1370 nM.

As for `COc1c(Cl)cccc1Nc1c(-c2ccncc2OCC2COCCO2)[nH]c2c1C(=O)NCC2` (stereo not drawn) [Example 1, 3-(3-chloro-2-methoxyanilino)-2-{3-[(1,4-dioxan-2-yl)methoxy]pyridin-4-yl}-1,5,6,7-tetrahydro-4H-pyrrolo[3,2-c]pyridin-4-one], the “mutEGFR” value in assay [1] came to 0.159 nM. This compound also returned an IC50 in assay [2] (setting [5]) of 3360 nM. For the same compound, the figures for the GI50 in assay [3] and in assay [4] were 9.8 nM and 366 nM, respectively.

On to `CCc1c(F)cccc1Nc1c(-c2ccncc2OCC2COCCO2)[nH]c2c1C(=O)NCC2` (single isomer, unassigned) [Example 66, 2-(3-{[1,4-dioxan-2-yl]methoxy}pyridin-4-yl)-3-(2-ethyl-3-fluoroanilino)-1,5,6,7-tetrahydro-4H-pyrrolo[3,2-c]pyridin-4-one], for which the “mutEGFR” value in assay [1] amounted to 0.182 nM. Further, the IC50 in assay [2] (setting [5]) came to 5040 nM. In addition, the GI50 stood at 7.52 nM in assay [3] and 252 nM in assay [4].

On to `COc1c(Cl)cccc1Nc1c(-c2ccncc2OC[C@H]2COCCO2)[nH]c2c1C(=O)NCC2` (single isomer, unassigned) [Example 3], for which the “mutEGFR” value in assay [1] is 0.137 nM. Further, the IC50 in assay [2] (setting [5]) was 3330 nM. Besides, the GI50 came out at 22.8 nM in assay [3] and 755 nM in assay [4].

With `CCc1c(Cl)cccc1Nc1c(-c2ccncc2OC[C@@H]2COCCO2)[nH]c2c1C(=O)NCC2` (single isomer, unassigned) [Example 53], the “mutEGFR” value in assay [1] was found to be 0.426 nM. The compound further showed an IC50 in assay [2] (setting [5]) of 1360 nM. Further, the GI50 in assay [3] was 21.3 nM; in assay [4], 408 nM.

For the compound `COc1c(Cl)cccc1Nc1c(-c2ccncc2OCCC2COCCO2)[nH]c2c1C(=O)NCC2` (single isomer, unassigned) [Example 26, 3-(3-chloro-2-methoxyanilino)-2-{3-[2-(4-dioxan-2-yl)ethoxy]pyridin-4-yl}-1,5,6,7-tetrahydro-4H-pyrrolo[3,2-c]pyridin-4-one], in assay [1], the “mutEGFR” value was 0.213 nM. The compound further yielded an IC50 in assay [2] (setting [5]) of 1080 nM. The results for the GI50 in assay [3] and in assay [4] were 89.9 nM and 839 nM, respectively.

Turning to `O=C1NCCc2[nH]c(-c3ccncc3OCC3COCCO3)c(Nc3cccc(Cl)c3Cl)c21` (single isomer, unassigned) [Example 9, 3-(2,3-Dichloroanilino)-2-{3-[(1,4-dioxan-2-yl)methoxy]pyridin-4-yl}-1,5,6,7-tetrahydro-4H-pyrrolo[3,2-c]pyridin-4-one], the “mutEGFR” value in assay [1] came out at 0.0891 nM. In addition, the IC50 in assay [2] (setting [5]) is 4230 nM. Moreover, the GI50 in assay [3] was 32.7 nM; in assay [4], 303 nM.

`O=C1NCCc2[nH]c(-c3ccncc3OCC3COCCO3)c(Nc3cccc(Cl)c3Cl)c21` (stereo not drawn) [Example 7, 3-(2,3-dichloroanilino)-2-{3-[(1,4-dioxan-2-yl)methoxy]pyridin-4-yl}-1,5,6,7-tetrahydro-4H-pyrrolo[3,2-c]pyridin-4-one]: the “mutEGFR” value in assay [1] was 0.137 nM. In assay [2] (setting [5]), this compound had an IC50 of 10600 nM. Further, the values for the GI50 in assay [3] and in assay [4] were 18 nM and 292 nM, respectively.

Turning to `Cc1c(Cl)cccc1Nc1c(-c2ccncc2OCC2COCCO2)[nH]c2c1C(=O)NCC2` (stereo not drawn) [Example 10, 3-(3-chloro-2-methylanilino)-2-{3-[(1,4-dioxan-2-yl)methoxy]pyridin-4-yl}-1,5,6,7-tetrahydro-4H-pyrrolo[3,2-c]pyridin-4-one], the “mutEGFR” value in assay [1] is 0.669 nM. The same compound yielded an IC50 in assay [2] (setting [5]) of 1780 nM. Besides, the GI50 in assay [3] was determined as 11.1 nM; in assay [4] it was 496 nM.
